From patent US11440909B2, “10H-phenothiazine ferroptosis inhibitor as well as the preparative method and the use thereof” (CHENGDU HENGHAO INVESTMENT CO. LIMITED, priority 2018, dated 2022)

The molecules below were run on fibrosarcoma cell line HT1080 (assay: Ferroptosis screening model (MTT method), Erastin-induced ferroptosis). Details: HT1080, ferroptosis inducer Erastin, 72 h, average of three tests, read-out: EC50.
Format: cell-based, human
Procedure: The screening model for ferroptosis mainly used MTT method. First, the fibrosarcoma cell line HT1080 was cultured in a dish, and the cells in the logarithmic growth phase were inoculated into a 96-well plate in a certain number (3000-10000 cells/well), 100 μL per well, and then the plate was put in an 5% CO2 incubator at 37° C., to allow the cells to adhere. After 24 h, 100 μL compound solution at a certain concentration prepared in the designated medium and ferroptosis inducer Erastin (with a final concentration of […]) were added, setting 3 replicate wells for each compound to ensure the accuracy of the results, and a negative control group, a positive control group (Fer-15 μM), a blank control group and a solvent control group were included. After addition of drugs, the plate was placed in an incubator and cultivated for 72 h. On the day of MTT experiment, MTT test solution (5 mg/mL MTT solution dissolved in physiological saline, and stored in the dark at 4° C.) was pre-prepared and 20 μL MTT solution was added to each well, then the plate was put in an incubator and continued to incubate for 2-4 h. After that, 50 μL of 20% SDS solution (dissolved in MiliiQ water, added with 1% concentrated hydrochloric acid) was added to each well and kept in an incubator overnight. On the next day, the absorbance at 570 nm was measured with a microplate reader, to calculate the inhibition rate of drugs on ferroptosis. Generally, the absorbance value of the control group should be in the range of 0.8-1.2 as a normal value.
GraphPadPrism5 software was used to fit the change curve of inhibition rate and calculate the EC50.
An EC50 of 0.01 µM was found for `CC(c1ccccc1)c1ccc2c(c1)Nc1ccccc1S2` (centres unmarked) [Compound B1, 2-(1-phenylethyl)-10H-phenothiazine] in this work. An EC50 of 0.417 µM was found for `CC(c1ccc2c(c1)Nc1ccccc1S2)S(=O)(=O)N1CCN(c2ccccc2)CC1` (centres unmarked) [Compound C24, 2-(1-((4-phenylpiperazin-1-yl)sulfonyl)ethyl)-10H-phenothiazine] in this work. An EC50 of 0.73 µM was found for `COc1ccccc1N1CCN(S(=O)(=O)C(C)c2ccc3c(c2)Nc2ccccc2S3)CC1` (centres unmarked) [Compound C22, 2-(1-((4-(2-methoxylphenyl)piperazin-1-yl)sulfonyl)ethyl)-10H-phenothiazine] in this work.

Same assay, conditions: Homo sapiens, HT-1080, 72 h, HT1080, ferroptosis inducer Erastin, 72 h, average of three tests, read-out: EC50
An EC50 of 0.005 µM was found for `CC(c1cccc(Cl)c1)c1ccc2c(c1)Nc1ccccc1S2` (centres unmarked) [Compound A3, 2-(1-(3-chlorophenyl)ethyl)-10H-phenothiazine] in this work. An EC50 of 0.015 µM was found for `CC(C)Oc1cccc(C(C)c2ccc3c(c2)Nc2ccccc2S3)c1` (centres unmarked) [Compound A12, 2-(1-(3-isopropoxylphenyl)ethyl)-10H-phenothiazine] in this work. An EC50 of 0.032 µM was found for `C=C(c1ccc(C(=O)OC)cc1)c1ccc2c(c1)Nc1ccccc1S2` [Compound B2, methyl 4-(1-(10H-phenothiazin-2-yl)ethenyl)benzoic acid] in this work. An EC50 of 0.021 µM was found for `CCCc1ccc(C(C)c2ccc3c(c2)Nc2ccccc2S3)cc1` (centres unmarked) [Compound A25, 2-(1-(4-propylphenyl)ethyl)-10H-phenothiazine] in this work. An EC50 of 0.26 µM was found for `CC(c1ccc2c(c1)Nc1ccccc1S2)S(=O)(=O)N1CC[C@@H](O)C1` (some centres unmarked) [Compound C14] in this work. An EC50 of 0.004 µM was found for `C=C(c1cnc(N2CCCN(C)CC2)nc1)c1ccc2c(c1)Nc1ccccc1S2` [Compound B50, 2-(1-(2-(4-methyl-1,4-homopiperazin-1-yl)pyrimidin-5-yl)ethenyl)-10H-phenothiazine] in this work. An EC50 of 0.018 µM was found for `CC(c1ccc2c(c1)Nc1ccccc1S2)c1ccc(F)c(C(F)(F)F)c1` (centres unmarked) [Compound A41, 2-(1-(4-fluoro-3-(trifluoromethyl)phenyl)ethyl)-10H-phenothiazine] in this work. An EC50 of 0.005 µM was found for `CC(c1cccc(O)c1)c1ccc2c(c1)Nc1ccccc1S2` (centres unmarked) [Compound A6, 3-(1-(10H-phenothiazin-2-yl)ethyl)phenol] in this work. An EC50 of 0.388 µM was found for `CC(c1ccc2c(c1)Nc1ccccc1S2)S(=O)(=O)N1CCN(C(c2ccccc2)c2ccccc2)CC1` (centres unmarked) [Compound C26, 2-(1-((4-diphenylmethylpiperazin-1-yl)sulfonyl)ethyl)-10H-phenothiazine] in this work. An EC50 of 0.012 µM was found for `COc1cc(OC)cc(C(C)c2ccc3c(c2)Nc2ccccc2S3)c1` (centres unmarked) [Compound A60, 2-(1-(3,5-dimethoxylphenyl)ethyl)-10H-phenothiazine] in this work. An EC50 of 0.013 µM was found for `CC(c1cccc(OC(F)(F)F)c1)c1ccc2c(c1)Nc1ccccc1S2` (centres unmarked) [Compound A17, 2-(1-(3-(trifluoromethoxyl)phenyl)ethyl)-10H-phenothiazine] in this work. An EC50 of 0.426 µM was found for `CC(c1ccc2c(c1)Nc1ccccc1S2)S(=O)(=O)N1C[C@@H](C)O[C@@H](C)C1` (stereo partly drawn) [Compound C44, (2S,6R)-4-((1-(10H-phenothiazin-2-yl)ethyl)sulfonyl)-2,6-dimethylmorpholine] in this work. An EC50 of 0.031 µM was found for `COC(=O)c1cc(F)cc(C(C)c2ccc3c(c2)Nc2ccccc2S3)c1` (centres unmarked) [Compound A63, 3-(1-(10H-phenothiazin-2-yl)ethyl)-5-fluorobenzoic acid methyl ester] in this work. An EC50 of 0.02 µM was found for `Cc1cc(C)cc(C(C)c2ccc3c(c2)Nc2ccccc2S3)c1` (centres unmarked) [Compound A59, 2-(1-(3,5-dimethylphenyl)ethyl)-10H-phenothiazine] in this work. An EC50 of 0.335 µM was found for `CC(c1ccc2c(c1)Nc1ccccc1S2)S(=O)(=O)N1CCC[C@@H]1C` (some centres unmarked) [Compound C42] in this work. An EC50 of 0.905 µM was found for `C=C(c1cc(C(C)(C)C)cc(C(C)(C)C)c1)c1ccc2c(c1)Nc1ccccc1S2` [Compound B41, 2-(1-(3,5-di-t-butylphenyl)ethenyl)-10H-phenothiazine] in this work. An EC50 of 0.342 µM was found for `CC(c1ccc2c(c1)Nc1ccccc1S2)S(=O)(=O)N1CCCC(CNC(=O)OC(C)(C)C)C1` (centres unmarked) [Compound C35, t-butyl ((1-((1-(10H-phenothiazin-2-yl)ethyl)sulfonyl)piperidin-3-yl)methyl)carbamate] in this work. An EC50 of 0.039 µM was found for `C=C(c1ccc(C2CCCCC2)cc1)c1ccc2c(c1)Nc1ccccc1S2` [Compound B11, 2-(1-(4-cyclohexylphenyl)ethenyl)-10H-phenothiazine] in this work. An EC50 of 0.142 µM was found for `Cc1ccc(N2CCN(S(=O)(=O)C(C)c3ccc4c(c3)Nc3ccccc3S4)CC2)cc1` (centres unmarked) [Compound C59, 2-(1-((4-(p-methylphenyl)piperazin-1-yl)sulfonyl)ethyl)-10H-phenothiazine] in this work. An EC50 of 0.228 µM was found for `CC(c1ccc2c(c1)Nc1ccccc1S2)S(=O)(=O)N1CCC[C@H](NC(=O)OC(C)(C)C)C1` (stereo partly drawn) [Compound C29, t-butyl ((3S)-1-((1-(10H-phenothiazin-2-yl)ethyl)sulfonyl)piperidin-3-yl) carbamate] in this work. An EC50 of 0.017 µM was found for `CC(c1ccc2c(c1)Nc1ccccc1S2)c1ccc(Cl)c(C(F)(F)F)c1` (centres unmarked) [Compound A43, 2-(1-(4-chloro-3-(trifluoromethyl)phenyl)ethyl)-10H-phenothiazine] in this work. An EC50 of 0.142 µM was found for `CC(c1ccc2c(c1)Nc1ccccc1S2)S(=O)(=O)N1CCCC(O)C1` (centres unmarked) [Compound C40, 1-((1-(10H-phenothiazin-2-yl)ethyl)sulfonyl)piperidin-3-ol] in this work. An EC50 of 0.034 µM was found for `CCOc1cc(F)cc(C(C)c2ccc3c(c2)Nc2ccccc2S3)c1` (centres unmarked) [Compound A61, 2-(1-(3-ethoxyl-5-fluorophenyl)ethyl)-10H-phenothiazine] in this work. An EC50 of 0.156 µM was found for `CC1CCCN(S(=O)(=O)C(C)c2ccc3c(c2)Nc2ccccc2S3)C1` (centres unmarked) [Compound C46, 2-(1-((3-methylpiperidin-1-yl)sulfonyl)ethyl)-10H-phenothiazine] in this work. An EC50 of 0.069 µM was found for `CC(c1ccc2c(c1)Nc1ccccc1S2)S(=O)(=O)N1CCN(c2ncccn2)CC1` (centres unmarked) [Compound C52, 2-(1-((4-(pyrimidin-2-yl)piperazin-1-yl)sulfonyl)ethyl)-10H-phenothiazine] in this work. An EC50 of 0.046 µM was found for `CC(c1ccc2c(c1)Nc1ccccc1S2)S(=O)(=O)N1CCN(CCCN(C)C)CC1` (centres unmarked) [Compound C7, 3-(4-((1-(10H-phenothiazin-2-yl)ethyl)sulfonyl)piperazin-1-yl)-N,N-dimethylpropan-1-amine] in this work. An EC50 of 0.011 µM was found for `C=C(c1ccc(C(F)(F)F)cc1)c1ccc2c(c1)Nc1ccccc1S2` [Compound B3, 2-(1-(4-(trifluoromethyl)phenyl)ethenyl)-10H-phenothiazine] in this work. An EC50 of 0.148 µM was found for `C=C(c1cccc(S(=O)(=O)NC(C)(C)C)c1)c1ccc2c(c1)Nc1ccccc1S2` [Compound B53, 3-(1-(10H-phenothiazin-2-yl)ethenyl)-N-(t-butyl)Benzenesulfonamide] in this work. An EC50 of 0.085 µM was found for `CC(c1ccc2c(c1)Nc1ccccc1S2)S(=O)(=O)N1CCN(CCc2ccccc2)CC1` (centres unmarked) [Compound C9, 2-(1-((4-phenethylpiperazin-1-yl)sulfonyl)ethyl)-10H-phenothiazine] in this work. An EC50 of 0.006 µM was found for `CC(c1ccc(F)cc1)c1ccc2c(c1)Nc1ccccc1S2` (centres unmarked) [Compound A19, 2-(1-(4-fluorophenyl)ethyl)-10H-phenothiazine] in this work. An EC50 of 0.185 µM was found for `CC(c1ccc2c(c1)Nc1ccccc1S2)S(=O)(=O)N1CCN(CC(=O)N2CCCC2)CC1` (centres unmarked) [Compound C6, 2-(4-((1-(10H-phenothiazin-2-yl)ethyl)sulfonyl)piperazin-1-yl)-1-(pyrrolin-1-yl)-1-ethanone] in this work. An EC50 of 0.006 µM was found for `CC(c1ccc(C#N)cc1)c1ccc2c(c1)Nc1ccccc1S2` (centres unmarked) [Compound A22, 4-(1-(10H-phenothiazin-2-yl)ethyl)benzonitrile] in this work. An EC50 of 0.005 µM was found for `CC(c1cccc(I)c1)c1ccc2c(c1)Nc1ccccc1S2` (centres unmarked) [Compound A4, 2-(1-(3-iodophenyl)ethyl)-10H-phenothiazine] in this work. An EC50 of 0.005 µM was found for `Cc1cccc(C(C)c2ccc3c(c2)Nc2ccccc2S3)c1` (centres unmarked) [Compound A8, 2-(1-(m-methylphenyl)ethyl)-10H-phenothiazine] in this work. An EC50 of 0.01 µM was found for `C=C(c1cccc(S(N)(=O)=O)c1)c1ccc2c(c1)Nc1ccccc1S2` [Compound B20, 3-(1-(10H-phenothiazin-2-yl)ethenyl)benzenesulfonamide] in this work. An EC50 of 0.03 µM was found for `C=C(c1cccc(OC(F)(F)F)c1)c1ccc2c(c1)Nc1ccccc1S2` [Compound B22, 2-(1-(3-trifluoromethoxylphenyl)ethenyl)-10H-phenothiazine] in this work. An EC50 of 0.089 µM was found for `C=C(c1cccc(C#N)c1)c1ccc2c(c1)Nc1ccccc1S2` [Compound B32, 3-(1-(10H-phenothiazin-2-yl)ethenyl)benzonitrile] in this work. An EC50 of 0.018 µM was found for `CCOc1ccc2cc(C(C)c3ccc4c(c3)Nc3ccccc3S4)ccc2c1` (centres unmarked) [Compound A70, 2-(1-(6-ethoxylnaphthalen-2-yl)ethyl)-10H-phenothiazine] in this work. An EC50 of 0.016 µM was found for `C=C(c1cccc(C(N)=O)c1)c1ccc2c(c1)Nc1ccccc1S2` [Compound B26, 3-(1-(10H-phenothiazin-2-yl)ethenyl)benzamide] in this work. An EC50 of 0.08 µM was found for `C=C(c1ccc(OC(F)(F)F)cc1)c1ccc2c(c1)Nc1ccccc1S2` [Compound B5, 2-(1-(4-trifluoromethoxylphenyl)ethenyl)-10H-phenothiazine] in this work. An EC50 of 0.016 µM was found for `CC(c1ccc(Cl)c(Cl)c1)c1ccc2c(c1)Nc1ccccc1S2` (centres unmarked) [Compound A42, 2-(1-(3,4-dichlorophenyl)ethyl)-10H-phenothiazine] in this work.
